How the values were obtained:
[1] = target: human sphingosine-1-phosphate 1 receptor (S1P1 receptor) (Homo sapiens, UniProt P21453); assay: Ca2+ inducing ability using CHO cells overexpressing human S1P1 receptor (Calcium 5 assay kit); format: cell-based; settings: CHO cells overexpressing human S1P1, calcium RFU; S1P 1 μM = 100%
Excerpt: Evaluation of Ca^2+ inducing ability of test compound using a cell line expressing human sphingosine-1-phosphate
CHO (Chinese hamster ovary) cells which overexpress human sphingosine-1-phosphate 1 receptor (S1P1 receptor) that react with sphingosine-1-phosphate (S1P) are used for a functional test method wherein an increase of calcium indicates a therapeutic efficacy of an agonist compound.
To prepare CHO cells which overexpress human S1P1˜S1P5, human clones for each subtype having HA at the N terminal residue (S1P1: EDG010TN00, S1P2: EDG020TN00, S1P3: EDG030TN00, S1P4: EDG060TN00, S1P5: EDG080TN00) were purchased from the Missouri S&T cDNA Resource Center and co-transfected with G-protein alpha subunit (G-alpha-16) into CHO-K1 cells.
A calcium measurement kit (Calcium 5 assay kit, Molecular Devices) was used to select an agonist compound. The principle of calcium measurement is that calcium-sensitive dyes are applied to cells, they enter into the cytoplasm of the cells during incubation, and when a ligand binds to a certain receptor to release calcium into the cytoplasm, the dyes bind to said calcium to induce fluorescence which is measured. This test method can sensitively measure only the intracellular calcium concentration change because any change that may occur outside the cells is masked by a masking dye.
The experimental procedure was as follows. One day before calcium measurement, CHO cells overexpressing hS1P1˜hS1P5 were dispensed into a 96-well plate (bottom clear black well) in 3×10^4 cells per well and cultured at 37° C. under 5% carbon dioxide condition for one day. 100 μl of calcium dyes mixed with Assay Buffer (1×HBSS, 20 mM HEPES, 2.5 mM probenecid, pH 7.4) were dispensed into culture solution in well and cultured at 37° C. for one hour. Test compounds were dissolved in 100% DMSO to prepare 1 μl solution per each concentration, and each solution was mixed with 199 μl Assay Buffer such that the concentrations were 50, 5, 0.5, 0.05, 0.005 and 0.0005 μM. The plate cultured with the calcium dyes was put into FlaxstationII (Molecular Devices), and the prepared test compounds (the final concentrations of the test compounds: 10, 1, 0.1, 0.01, 0.001 and 0.0001 μM) were programmed to be automatically inoculated in 50 μl per each well. For a total of 90 seconds, RFU (relative fluorescence unit) values were measured. The value of Reference (S1P substance 1 μM) deducting the blank value was set as 100%, and EC50 values of the test compounds were calculated by prism.

lymphocytes in blood = assay: Rat peripheral blood lymphocyte decrease; format: in vivo; settings: male SD rat, administered once, 6 hours after administration
Description: Evaluation of Rat Peripheral Blood Lymphocyte Decrease
Lymphocyte decrease in blood by S1P1 agonist was evaluated using a male SD rat. After adapting a rat weighing about 250 g to a breeding facility for one week, a test compound was administered to it once. At 3 hours, 6 hours, 24 hours and 48 hours after administration, blood was taken from a tail caudal vein, and about 200 μl of the blood was put into an EDTA tube while preventing it from clotting, followed by measurement of the number of lymphocytes in blood. The number of lymphocytes was analyzed by a hematological examination device, Hemoanalyzer. The doses of the test compounds were 3 mg/kg for Example 52, 94, 108, 117, 142, 145, 146, 148 and 149 compounds, and 1 mg/kg for Example 150, 151, 153, 154, 155, 158, 159 and 161 compounds.

human sphingosine-1-phosphate 1 receptor (S1P1 receptor), sequence (P21453 whole entry): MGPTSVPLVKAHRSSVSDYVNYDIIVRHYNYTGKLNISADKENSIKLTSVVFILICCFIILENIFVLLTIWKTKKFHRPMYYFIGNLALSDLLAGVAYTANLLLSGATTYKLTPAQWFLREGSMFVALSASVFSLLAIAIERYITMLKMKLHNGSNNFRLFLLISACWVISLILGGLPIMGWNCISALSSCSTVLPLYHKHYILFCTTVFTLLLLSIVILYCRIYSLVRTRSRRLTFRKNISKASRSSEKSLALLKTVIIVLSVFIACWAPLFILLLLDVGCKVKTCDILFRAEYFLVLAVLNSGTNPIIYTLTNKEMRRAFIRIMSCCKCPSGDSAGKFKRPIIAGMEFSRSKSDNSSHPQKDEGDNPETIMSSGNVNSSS

In the case of `CC(C)n1nc(Cl)c2cc(COc3ccc4cc(CN5CC(C(=O)O)C5)ccc4c3)ccc21` [Example 142, 1-[6-(3-chloro-1-isopropyl-1H-indazol-5-ylmethoxy)-naphthalen-2-ylmethyl]-azetidine-3-carboxylic acid], the EC50 [1] is reported as 7 nM and the “Lymphocyte count (degree of decrease in lymphocyte number)” value (lymphocytes in blood; 3 mg/kg) is reported as −80%.
With `CC(C)n1nc(Cl)c2cc(COc3ccc4c(c3)CCC(CN3CC[C@@H](C(=O)O)C3)=C4Cl)ccc21` [Example 151, (R)-1-[1-chloro-6-(3-chloro-1-isopropyl-1H-indazol-5-ylmethoxy)-3,4-dihydro-naphthalen-2-ylmethyl]-pyrrolidine-3-carboxylic acid] the EC50 [1] was 11 nM and the “Lymphocyte count (degree of decrease in lymphocyte number)” value (lymphocytes in blood; 1 mg/kg) was −80%.
`CC(C)n1nc(Cl)c2cc(COc3ccc4c(c3)CCC(CN3CCCC(F)(C(=O)O)C3)=C4Cl)ccc21` (stereo not shown) [Example 158, 1-[1-chloro-6-(3-chloro-1-isopropyl-1H-indazol-5-ylmethoxy)-3,4-dihydro-naphthalen-2-ylmethyl]-3-fluoro-piperidine-3-carboxylic acid] was tested, and the EC50 [1] was 14 nM and the “Lymphocyte count (degree of decrease in lymphocyte number)” value (lymphocytes in blood; 1 mg/kg) was −30%.
For `CC(C)n1nc(Cl)c2cc(COc3ccc4c(c3)CCC(CN3CCC(C(=O)O)CC3)=C4Cl)ccc21` [Example 153, 1-[1-chloro-6-(3-chloro-1-isopropyl-1H-indazol-5-ylmethoxy)-3,4-dihydro-naphthalen-2-ylmethyl]-piperidine-4-carboxylic acid], the EC50 [1] was 11 nM and the “Lymphocyte count (degree of decrease in lymphocyte number)” value (lymphocytes in blood; 1 mg/kg) was −80%.
`CC1=C(CN2CCC(C(=O)O)CC2)CCc2cc(OCc3ccc4c(c3)c(Cl)nn4C(C)C)ccc21` [Example 148, 1-[6-(3-chloro-1-isopropyl-1H-indazol-5-ylmethoxy)-1-methyl-3,4-dihydro-naphthalen-2-ylmethyl]-piperidine-4-carboxylic acid] was tested, and the EC50 [1] was 19 nM and the “Lymphocyte count (degree of decrease in lymphocyte number)” value (lymphocytes in blood; 3 mg/kg) was −81%.
`CC(C)n1nc(Cl)c2cc(COc3ccc4c(c3)CCC(CN3CCC(F)(C(=O)O)CC3)=C4Cl)ccc21` [Example 154, 1-[1-chloro-6-(3-chloro-1-isopropyl-1H-indazol-5-ylmethoxy)-3,4-dihydro-naphthalen-2-ylmethyl]-4-fluoro-piperidine-4-carboxylic acid] was tested, and the EC50 [1] was 17 nM and the “Lymphocyte count (degree of decrease in lymphocyte number)” value (lymphocytes in blood; 1 mg/kg) was −65%.
For `CC1=C(CN(C)CC(=O)O)CCc2cc(OCc3ccc4c(c3)c(Cl)nn4C(C)C)ccc21` [Example 145, {[6-(3-chloro-1-isopropyl-1H-indazol-5-ylmethoxy)-1-methyl-3,4-dihydro-naphthalen-2-ylmethyl]-methyl-amino}-acetic acid], the EC50 [1] was 9 nM and the “Lymphocyte count (degree of decrease in lymphocyte number)” value (lymphocytes in blood; 3 mg/kg) was −48%.
For `CC1=C(CN2CCCC(C(=O)O)CC2)CCc2cc(OCc3ccc4c(c3)c(Cl)nn4C(C)C)ccc21` (stereo not shown) [Example 149, 1-[6-(3-chloro-1-isopropyl-1H-indazol-5-ylmethoxy)-1-methyl-3,4-dihydro-naphthalen-2-ylmethyl]-azepane-4-carboxylic acid], the EC50 [1] was 19 nM and the “Lymphocyte count (degree of decrease in lymphocyte number)” value (lymphocytes in blood; 3 mg/kg) was −80%.

— patent US9540362B2, “Sphingosine-1-phosphate receptor agonists, methods of preparing the same, and pharmaceutical compositions containing the same as an active agent” (LG LIFE SCIENCES LTD., priority 2013, dated 2017)
